According to US20070224273A1, “Multifunctional Supramolecular Hydrogels as Biomaterials” (priority 2004, published 2007):
Each block holds one compound with its values, some of them ahead of it. Peptide text beside a SMILES is read from it. * marks the point of attachment. Butanoyl(4-pyren-1-yl) = O=C(CCCc1ccc2ccc3cccc4ccc1c2c34)*; Acetyl(1-naphthyl) = O=C(Cc1cccc2ccccc12)*

How the values were obtained:
[1] = Artificial enzyme (hemin) activity assay, oxidation of pyrogallol by H2O2; format: biochemical
Protocol: Activity assay: Using the oxidation of pyrogallol (10.0 mM) by H2O2 (40.0 mM) as a model reaction and fixing the total concentration of Hemin to 5 μM in the mixture, we examined the activity of Hemin by monitoring the absorbance (420 nm) of purpurogallin, the product of Hemin-catalyzed oxidation of pyrogallol. The catalytic reaction course of the artificial enzyme was measured by monitoring the increase in absorbance along with time change. The absorbance increase in the first minute was defined to be the initial rate. The Lineweaver-Burk plots constructed by the reaction initial rates at different pyrogallol concentrations were used to estimate their kinetic constant values. The other substrates, including o-phenyldiamine (product absorption at 450 nm) and o-aminophenol (product absorption at 430 nm), were employed under the same procedure of pyrogallol.
Using the oxidation of pyrogallol as a model reaction and fixing the total concentration of Hemin to be 5 μM in the mixture, we obtained the catalytic rate of Hemin by monitoring the changes of the absorbance of purpurogallin, the product of Hemin-catalyzed oxidation of pyrogallol. […] The Lineweaver-Burk plots constructed by the reaction initial rates at different pyrogallol concentrations gave the activity of the artificial enzyme. The kinetics of the catalysis of artificial enzyme follows Michaelis-Menten equation, which indicated successful design and generation of an artificial peroxidase by encapsulating hemin into hydrogel. […] Two factors likely contribute to the high activity of Hemin(Phe) in pH 7,4 buffer: (i) localization of hemin on the nanofibers preserves the catalytic species—monomeric hemin; (ii) the mesoporous structure in hydrogel facilitates the substrate across the hydrogel network to access the hemin in the hydrogel.

[2] = Hydrogelation in water (ability, concentration, pH); format: physicochemical
Protocol: Typically, after 2 mg of 1 was suspended in 1.0 mL of water, the increase of temperature to 80° C. gave a clear solution. Cooling the solution to room temperature led to a slightly opaque hydrogel (Gel I, FIG. 20A). Similar procedure afforded the hydrogel of 2 (Gel II, FIG. 20B).

[3] = Solubility in water of pentapeptide derivatives; format: physicochemical
Text: Most of the compounds can gel water under appropriate pH. When the pH becomes higher than the listed value, the gel tends to become a clear solution, while a lower pH always leads to precipitation rather than homogeneous gel formation. GAGAS (SEQ ID No. 1), the epitope with the least bulk side chains, appears to be quite hydrophilic in water.
However, it is still not a good candidate as a hydrophilic tail in a hydrogelator. […] Hydrogel by Fmoc-GVGVP can be obtained by carefully adjusting the pH to 4.8, with the hydrogel not being thermal-reversible. […] Upon heating, it also melts. All three compounds, with VPGVG as the hydrophilic part, fail to gel water at the tested condition. They all show sharp solubility changes with pH and low melting points.

[4] = tested on: acid phosphatase; assay: Visual hydrogelation assay for enzyme inhibitors (conversion of 9 to 10); format: biochemical; conditions: pH=6.0, 37° C., solution-to-gel transition after 30 minutes
Text: FIG. 6 illustrates the design of the visual assay. The precursor, which acts as the substrate of an enzyme, transforms into a hydrogelator when the enzyme catalyzes its conversion. Then, the self-assembly of the hydrogelators in water induces the formation of hydrogel. When inhibitors competitively bind with the active site of the enzyme and block the conversion of the precursor catalyzed by the enzyme, no hydrogel forms. Therefore, the macroscopic solution-to-gel transition (which can be observed visually) of the solution of the precursor reports the inactivation of the enzyme by the inhibitors.
This approach has a unique feature—it enlists water molecules as part of the reporting system. In addition, no spectrometer is required for observing the solution-to-gel phase transition. This simple and inexpensive method may be useful, not only for screening the inhibitors but also, for detecting the presence of enzymes when appropriate precursors are used. To verify the feasibility of the design shown in FIG. 6, a simple amino acid derivative (9), which can be converted into a hydrogelator (10) by dephosphorylation, was used to screen the inhibitors for an acid phosphatase.
Since the acid phosphatase catalyzes the conversion of 9 to 10 and leads to hydrogelation at a pH=6.0 and 37° C., the event of hydrogelation can indicate the activity of inhibitors for the acid phosphatase itself. Pamidronate disodium, Zn^2+, and sodium orthovanadate (Na3VO4) were chosen to estimate their minimum inhibition concentrations for the acid phosphatase. The three compounds were first mixed with the enzyme at a series of concentrations, respectively, followed by the addition of 9 to the solutions 10 minutes after mixing. After an additional 30 minutes of incubation, the solution-to-gel phase transition indicates the minimum inhibition concentration of the compounds. From the changes of rows 2, 3, and 4 in FIG. 7, the minimum inhibition concentrations of Pamidronate disodium, Zn^2+, and sodium orthovanadate (Na3VO4) for the acid phosphatase were determined to be 33 mM, 0.33 mM, and 3.3 mM, respectively.

[5] = tested on: C600 (β-lactamase negative E. coli control); assay: Cell lysate added to solution of precursor 3, sample A; format: biochemical; conditions: precursor 3 to form 1 after 6 hours
Protocol: (§1) To evaluate whether precursor 3 would respond to β-lactamases in bacteria, solution of precursor 3 was treated with sonicated lysates of E. coli.

[6] = tested on: CTX-M13 (extended-spectrum β-lactamase); assay: Cell lysate added to solution of precursor 3, sample B; format: biochemical, E. coli
Protocol: as §1

[7] = target: T1, CTX-M14 (extended-spectrum β-lactamase) (Escherichia coli, UniProt Q9L5C7); assay: Cell lysate added to solution of precursor 3, sample C; format: biochemical, E. coli
T1 construct: endogenous in cells; host or cells: E. coli (sonicated lysate)
T1 sequence (Q9L5C7 entry or part of it): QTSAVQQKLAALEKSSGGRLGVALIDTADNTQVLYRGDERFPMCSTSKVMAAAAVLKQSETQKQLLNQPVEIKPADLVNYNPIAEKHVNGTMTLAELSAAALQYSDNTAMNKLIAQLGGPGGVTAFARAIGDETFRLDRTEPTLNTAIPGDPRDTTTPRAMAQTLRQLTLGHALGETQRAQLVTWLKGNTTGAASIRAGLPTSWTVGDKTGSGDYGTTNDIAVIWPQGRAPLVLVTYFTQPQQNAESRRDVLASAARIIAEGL
Protocol: as §1

[8] = tested on: JP995 (β-lactamase negative E. coli control); assay: Cell lysate added to solution of precursor 3, sample D; format: biochemical; conditions: precursor 3 to form 1 after 6 hours
Protocol: as §1

[9] = target: T2, SHV-1 (broad-spectrum β-lactamase) (Escherichia coli, UniProt P0AD63); assay: Cell lysate added to solution of precursor 3, sample E; format: biochemical, E. coli; conditions: lysate SHV-1
T2 construct: endogenous in cells; host or cells: E. coli (sonicated lysate)
T2 sequence (P0AD63 22-286): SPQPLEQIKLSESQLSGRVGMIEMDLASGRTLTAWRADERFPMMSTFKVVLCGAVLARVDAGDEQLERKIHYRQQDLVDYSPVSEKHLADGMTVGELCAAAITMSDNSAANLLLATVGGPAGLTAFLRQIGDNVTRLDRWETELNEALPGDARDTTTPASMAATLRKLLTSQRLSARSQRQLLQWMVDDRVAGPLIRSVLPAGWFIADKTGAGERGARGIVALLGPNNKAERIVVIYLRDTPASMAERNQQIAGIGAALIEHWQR
Protocol: as §1

[10] = target: T3, TEM-1 (broad-spectrum β-lactamase) (Escherichia coli, UniProt P62593); format: biochemical, E. coli; conditions: lysate TEM-1
T3 construct: endogenous in cells; host or cells: E. coli (sonicated lysate)
T3 sequence (P62593 24-286 limits assumed): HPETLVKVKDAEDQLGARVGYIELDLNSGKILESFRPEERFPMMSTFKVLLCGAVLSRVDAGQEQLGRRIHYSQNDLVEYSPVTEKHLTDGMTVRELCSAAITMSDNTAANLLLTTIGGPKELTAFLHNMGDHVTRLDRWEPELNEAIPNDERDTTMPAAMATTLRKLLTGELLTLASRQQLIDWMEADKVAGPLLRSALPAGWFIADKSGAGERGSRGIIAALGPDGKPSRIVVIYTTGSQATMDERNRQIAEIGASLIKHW
Protocol: as §1

[11] = Solution of precursor 3, sample G (only water, no enzyme); format: biochemical; conditions: precursor 3 to form 1 after 6 hours
Protocol: as §1

[12] = tested on: β-lactamase
Protocol: After obtaining the precursor 3, we tested if a β-lactamase would trigger hydrogelation. Precursor 3 (1.75 mg) dissolved in water (0.50 mL, pH=8.0) to form a viscous solution (FIG. 18A).

[13] = precursor 3 to form 1 after 6 hours

retention of catalytic ability during reaction ([1]; 15 minutes course, water buffer and toluene): lost most catalytic ability after 5 min
kcat in buffer ([1]; buffer (0.01 M, pH 7.4, phosphate)): 0.04 s⁻¹
kcat in toluene ([1]; toluene): 0.045 s⁻¹
SMILES: C=CC1=C(C)c2cc3[n-]c(cc4nc(cc5[n-]c(cc1n2)c(C)c5CCC(=O)O)C(CCC(=O)O)=C4C)c(C)c3C=C.[Cl-].[Fe+3] [Hemin(Free), hemin chloride]

ability to gel water / form hydrogel [2]: fail to form supramolecular hydrogels
SMILES: O=C(Cc1ccc2ccccc2c1)NC1C(O)OC(CO)C(O)C1O [Nap-D-Glucosamine]

ability to gel water / form hydrogel [2]: fail to form supramolecular hydrogels
SMILES: O=C(Cc1ccc2ccccc2c1)NC(Cc1ccccc1)C(=O)NC(Cc1ccccc1)C(=O)NC1C(O)OC(CO)C(O)C1O [Nap-L-Phe-L-Phe-D-Glucosamine]

SMILES: C[C@H](NC(=O)CNC(=O)Cc1cccc2ccccc12)C(=O)NCC(=O)N[C@@H](C)C(=O)N[C@@H](CO)C(=O)O [Naph-GAGAS] ({Acetyl(1-naphthyl)}-GAGAS-OH)
solubility in water [3]: soluble in water even under low pH and high concentration

SMILES: CC(C)[C@H](NC(=O)CNC(=O)Cc1cccc2ccccc12)C(=O)NCC(=O)N[C@H](C(=O)N1CCC[C@H]1C(=O)O)C(C)C [Naph-GVGVP] ({Acetyl(1-naphthyl)}-GVGVP-OH)
solubility in water [3]: either dissolves in water at a pH higher than 4 or becomes a suspension at a lower pH

minimum inhibition concentration [4]: 33 mM
SMILES: NCCC(O)(P(=O)(O)O)P(=O)(O)O [Pamidronate disodium]

SMILES: NCC(=O)N[C@@H]1C(=O)N2C(C(=O)O)=C(CSCCNC(=O)[C@H](Cc3ccccc3)NC(=O)[C@H](Cc3ccccc3)NC(=O)Cc3ccc4ccccc4c3)CS[C@H]12 [Precursor 3]
Conversion (%) [5]: <0.5%
Conversion (%) ([5]; listed as precursor 3): < 0.5%
Gelation ([6]; precursor 3 0.35 wt %): + (Gels form in less than 2 hours)
Conversion (%) [6, 13]: 99.7%
Gelation ([7]; precursor 3 0.35 wt %): + (Gels form in less than 2 hours)
Conversion (%) [7, 13]: 99.5%
Conversion (%) [8]: 5.8%
Gelation ([9]; precursor 3 0.35 wt %): + (Gels form in less than 2 hours)
Conversion (%) [9, 13]: 65.2%
Gelation ([10]; precursor 3 0.35 wt %): + (Gels form in less than 2 hours)
Conversion (%) [10, 13]: 84.3%
Conversion (%) [11]: <0.5%
Conversion (%) ([11]; listed as precursor 3): < 0.5%
start of hydrogelation (dynamic time sweep) ([12]; after addition of the β-lactamases): about 22 minutes
precursor 3 transformed into 1 (HPLC) ([12]; one hour after addition of β-lactamase, room temperature): 49.0%
conversion of 3 to 1 (HPLC) ([12]; β-lactamase and its inhibitor (clavulanic acid), after 12 hours): 3.4%

SMILES: CC(C)[C@H](NC(=O)CCCc1ccc2ccc3cccc4ccc1c2c34)C(=O)N[C@@H](Cc1ccc(O)cc1)C(=O)NCC(=O)NCC(=O)NCC(=O)O [Pyrene-VYGGG] ({Butanoyl(4-pyren-1-yl)}-VYGGG-OH)
solubility in water [3]: insoluble in water even under basic conditions

minimum inhibition concentration [4]: 0.33 mM
SMILES: [Zn+2] [Zn^2+]

SMILES: O=C(O)[C@H]1/C(=C/CO)O[C@@H]2CC(=O)N21 [clavulanic acid, reference compound]
hydrogel formation with β-lactamase and inhibitor ([12]; precursor 3 added to β-lactamase and inhibitor): failed to yield a hydrogel

SMILES: [Na+].[Na+].[Na+].[O]=[V]([O-])([O-])[O-] [sodium orthovanadate]
minimum inhibition concentration [4]: 3.3 mM
